According to PMC8741604 (Translational Oncology, 2022):
Where a SMILES comes first, the peptide text is derived from it.

Tests used:
[1] = biological target: T1, human PD-L1 (Homo sapiens, UniProt Q9NZQ7); test: Bio-layer interferometry binding to PD-L1; details: for Affinity for PD-L1 in words: bio-layer interferometry
[2] = system: CT26 murine colon carcinoma cells; test: MTT cell viability without T cells; format: cell-based
[3] = system: CT26 murine colon carcinoma tumor in BALB/c mice; test: Subcutaneous CT26 syngeneic tumor model, without pre-immunization; format: in vivo, mouse; details: PD-L1ip3 peptide alone, no pre-immunization, vs untreated CT26
[4] = system: CT26 murine colon carcinoma tumor in BALB/c mice; test: Subcutaneous CT26 syngeneic tumor model, pre-treated with CT26 cell lysate; format: in vivo, mouse; details: PD-L1ip3 peptide only
[5] = biological target: T1, human PD-L1; details: cited from earlier work

T1 sequence (Q9NZQ7 19-290): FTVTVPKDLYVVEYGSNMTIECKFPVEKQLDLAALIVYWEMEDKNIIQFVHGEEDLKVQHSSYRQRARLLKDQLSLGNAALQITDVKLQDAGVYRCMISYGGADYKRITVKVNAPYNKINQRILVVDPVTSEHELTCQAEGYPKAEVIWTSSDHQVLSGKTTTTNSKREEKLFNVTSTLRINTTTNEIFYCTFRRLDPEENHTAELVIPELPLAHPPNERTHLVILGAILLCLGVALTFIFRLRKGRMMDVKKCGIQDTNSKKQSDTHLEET

For `CC[C@H](C)[C@H](NC(=O)[C@H](CC(C)C)NC(=O)[C@@H]1CCCN1C(=O)[C@H](CCCCN)NC(=O)[C@H](CC(C)C)NC(=O)[C@H](CCCNC(=N)N)NC(=O)[C@@H](NC(=O)CN)[C@@H](C)O)C(=O)N[C@H](C(=O)N[C@@H](CS)C(=O)N[C@H](C(=O)N[C@@H](CCC(N)=O)C(=O)N[C@@H](Cc1c[nH]c2ccccc12)C(=O)N1CCC[C@H]1C(=O)NCC(=O)N[C@@H](CC(C)C)C(=O)O)C(C)C)[C@@H](C)CC` [PD-L1ip3] (H-GTRLKPLIICVQWPGL-OH), the “Affinity for PD-L1 relative to natural partner PD-1” value ([1]; KD by BLI compared with literature PD-1 KD) was “only a few times weaker”, the “Affinity for PD-L1 in words” value [1] was “affinity in the micromolar range” and the “Cytotoxicity of the peptide (summary statement)” value ([2]; peptide alone, CT26 cells) was “negligible cytotoxicity”. The “Tumor growth in words, peptide alone” value [3] was “neither transduction of a scrambled sequence peptide gene by the adenovirus vector (Ad-PD-L1ip3SC) nor PD-L1ip3 in peptide form alone showed a statistically significant change in tumor growth” and the “Tumor growth in words, peptide alone, pre-immunized” value [4] was “minimal effect on tumor growth”.

In the case of VLIKIPWLRLPGCGTQ [PD-L1ip3SC], the “Affinity for PD-L1 in words” value [1] is reported as “very weak binding” and the “CT26 cell viability at 72 h, 10 µg/ml” value ([2]; MTT, 10 µg/ml, 72 h, not significantly different from PBS) is reported as “slight decrease of cell viability”.

B1: murine PD-1: murine PD-1, literature affinity for human PD-L1 (protein, UniProt Q02242 25-288, looked up)
Programmed cell death protein …: LEVPNGPWRSLTFYPAWLTVSEGANATFTCSLSNWSEDLMLNWNRLSPSNQTEKQAAFCNGLSQPVQDARFQIIQLPNRHDFHMNILDTRRNDSGIYLCGAISLHPKAKIEESPGAELVVTERILETSTRYPSPSPKPEGRFQGMVIGIMSALVGIPVLLLLAWALAVFCSTSMSEARGAGSKDDTLKEEPSAAPVPSVAYEELDFQGREKTPELPTACVHTEYATIVFTEGLGASAMGRRGSADGLQGPRPPRHEDGHCSWPL
In the case of B1, the “Affinity of murine PD-1 for human PD-L1 versus human PD-1” value [5] is listed as “shows similarity to that of human PD-1 for human PD-L1”.
